The test system of assay [1] is bovine sperm. The assay is described as follows: CASA motility of bovine sperm subpopulation with VCL >150 μm/s, sperm frozen with clofilium. Type of assay: cell-based. The settings on record: bovine sperm frozen with 0.2 μM clofilium, 24 h in capacitation medium with 0.2 μM clofilium, vs control. As to the method: However, only sperm presenting a sufficient velocity are able to cross the protective layers surrounding the egg and thus are competent for fertilizing eggs. To take this into account, sperm presenting a VCL >150 μm/s were selected and their velocity measured at different time (0 h and 24 h) in control condition or in the presence of clofilium. Sperm were frozen without clofilium (control) and with clofilium prior to test their motility. In the second case, clofilium was present during the sperm incubation period and during the capacitation period. Bovine ejaculate was split into two fractions, and diluted 1:1 in either Optixcell (Fraction 1) or Optixcell containing clofilium 0.2 μM (Fraction 2). After 10 minutes of 34° C. incubation, semen was then diluted to a final concentration of 57 million of spermatozoa/ml in Optixcell (Fraction 1) or Optixcell containing clofilium 0.2 μM (Fraction 2). Diluted semen was frozen as described above and stored in liquid nitrogen until in vitro fertilization. Thus, two types of straws were used: control straws and straws containing clofilium (0.2 μM ). Straws were thawed in a water-bath at 37° C. for 45 s. Each straw was wiped with 70° ethanol before opening. […] Spermatozoa presenting a VCL >150 μm/s were selected and their motility was measured using CASA, performed as above in control condition or in the presence of clofilium. […]

Assay [2] relates to bovine sperm. The assay can be described thus: In vitro fertilization with bovine sperm frozen with clofilium, washed or not washed after thawing. Type of assay: cell-based. The settings on record: bovine sperm frozen with 0.2 μM clofilium, vs control. As to the method: In order to be as close as possible of the possible field usage, sperm were frozen with clofilium prior to test their ability to improve fertilization. Two conditions were tested: in the first one, clofilium was present during the sperm incubation period, and in the second one, sperm was washed to remove clofilium in order to mimic the condition that may occur in the female reproductive tract. Straws containing clofilium were obtained as described below. Bovine ejaculate was split into two fractions, and diluted 1:1 in either Optixcell (Fraction 1) or Optixcell containing clofilium 0.2 μM (Fraction 2). After 10 minutes of 34° C. incubation, semen was then diluted to a final concentration of 57 million of spermatozoa/ml in Optixcell (Fraction 1) or Optixcell containing clofilium 0.2 μM (Fraction 2). Diluted semen was frozen as described above and stored in liquid nitrogen until in vitro fertilization. Two types of straws were used: control straws and straws containing clofilium. For straws containing clofilium, two conditions were tested: washed and not washed. The wash medium is a commonly used medium, sp-TALP, for bovine sperm handling and which composition is described above. For “not washed” conditions, sperm were incubated with sp-TALP containing 0.2 μM clofilium. […]

Here are results for one compound from patent US20230292743A1, “Method for increasing the lifespan and motility of animal sperm using an inhibitor of Slo3 potassium channel” (IMV TECHNOLOGIES, priority 2017, published 2023).

As to `CCCCCCC[N+](CC)(CC)CCCCc1ccc(Cl)cc1` [clofilium], in the assay with bovine sperm [1], the “motility (in terms of VCL) of sperm subpopulation with VCL >150 μm/s” value was “higher mean velocity”. In addition, the “percentage of 2-cell embryos vs matured oocytes at 24 h post fertilization” value with bovine sperm [2] (not washed (clofilium present in sp-TALP), up to 48 h incubation) is on record as “positive effect on embryo outcome lasted 48 hours”; with bovine sperm [2] (washed clofilium, 24 h incubation in sp-TALP), “positive effect at 24 hours is still present, although lower”; with bovine sperm [2] (washed clofilium, 48 h incubation in sp-TALP), “the effect is no longer present”.
